Literature values, collected in US5480779A (priority 1988, dated 1996).

target: peptidyl-prolyl cis-trans-isomerase (Sus scrofa, UniProt P62936)
Sequence (P62936 whole entry): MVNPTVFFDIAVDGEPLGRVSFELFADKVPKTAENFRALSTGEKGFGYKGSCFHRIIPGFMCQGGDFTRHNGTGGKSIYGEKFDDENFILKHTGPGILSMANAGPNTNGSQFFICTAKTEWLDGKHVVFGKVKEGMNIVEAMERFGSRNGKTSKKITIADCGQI

| Compound | inactivation / inhibition of the enzyme |
| --- | --- |
| O=C(O)c1cc[c]([Hg][Cl])cc1 [p-chloromercuribenzoate] | strongly inactivated |
| CCCCCCCCCCCCOS(=O)(=O)[O-].[Na+] [sodium dodecylsulfate] | strongly inactivated |
| chloroiosylamidophenylbutane | not inhibited |
